“And” between values parts separate entries of the source, which are not always exact repeats. Identical values can stand only once. “Also recorded” adds a separate entry of the source.
Experiments:
hDAT [1] = molecular target: T1, hDAT (Homo sapiens, UniProt Q01959); assay: In vitro radiosubstrate binding assay, hDAT expressing T-cells
T1 construct: expressed in transfected cells; host or cells: SupT1 human T-cell line, retrovirally transduced with SFG.hDAT.I.CD34 (co-transduced with FLuc for in vivo work)
Method: (§1) Reporter protein binding capabilities was assessed in a method previously described. Briefly, 1×10^6 all hDAT expressing T-cells and the non-transduced control cells were incubated at 37° C. with 7.4 kBq ^123I-FP-CIT (GE, Healthcare) for 30 mins. At each time point, cells were rapidly washed twice with 500 μL ice-cold PBS and the supernatant collected. Cell pellets were re-suspended in 1 mL PBS. ^123I-FP-CIT binding in cells and medium was measured using a gamma counter (WIZARD^2, PerkinElmer, UK). To determine the non-specific binding of the ^123I-FP-CIT in hDAT (+) cells, transduced cells and non-transduced cells were incubated with 50 μM of β-CIT-FP (ABX) for 5 min. ^123I-FP-CIT cells were subsequently prepared for gamma counting as mentioned above. All experiments were performed in triplicates and repeated ≥twice. All results are given as mean±standard deviation of the mean (SD). The data was analysed using one way analysis of variance (ANOVA) followed by the Tukey's HSD test with the IBM SPSS software.

[2] = tested on: control non-transduced (NT) SupT1 cells; assay: In vitro radiosubstrate binding assay, non-transduced control cells; parameters: species or system human; settings: 7.4 kBq, 37° C., 30 min
Method: as §1

hDAT [3] = molecular target: T1, hDAT; assay: SPECT/CT imaging of hDAT-positive brain xenografts in NSG mice; assay type: in vivo; settings: for specific to non-specific binding ratio hDAT: cerebellum: NSG mice n=4
Method: All animal procedures were carried out in accordance with the UK Animals (Scientific Procedures) 1986 Act and institutional ethics regulation. NSG mice were bred in-house and kept according to institutional guidelines. Male mice 6-10 weeks old were injected with 2 mg/kg body weight of 5% carprofen (Norbrook) and anaesthetised with 3-5% Isoflurane (ABBOTT, UK) in an induction chamber. Animals were placed in a stereotactic frame (David Kopf Instruments) with an anaesthesia head holder to deliver 3% isoflurane. A sagittal incision over the parieto-occipital bone using a sterile scalpel (Swann Morton Ltd) was made and a blunt ended Hamilton (75N, 26s/2″/2′5 ul) syringe with SupT1/hDAT.I.CD34 was placed 1.5 mm lateral and 1 mm anterior of bregma. The needle was lowered 4 mm in the brain through a burr hole and retracted 1 mm to create a small reservoir where the cells (1×10^4 in a 3 μl volume) were injected.
(§2) Animals were administered with 1.5 mmol/kg of the thyroid blocking agent potassium perchlorate (Sigma Aldrich, USA) intraperitoneally one hour prior to imaging. Animals were imaged with a NanoSPECT/CT small animal in vivo scanner (Mediso, Hungary) consisting of a rotating double headed camera (company, country). 1.2 mm pinhole mouse apertures were used. Imaging was performed under isoflurane (1.5-2%) and the body temperature was maintained at 37° C. using a heated animal bed (Minerve, France). For the kinetic study, animals were administered with an average of 17.25±1.22 MBq of ^123I-FP-CIT i.v. and 15 min. brain scans were acquired day 25 post tumour inoculation at 15 min. 2 h, 4 h, 6 h and 8 h. Images were reconstructed using HiSPECT software (InviCRO, USA) and image processing analysis was performed (VivoQuant Software; InviCRO, USA).
Time activity profiles were generated evaluate the hDAT reporter system in vivo. Regions of interest (ROIs) for the hDAT expressing xenografts, cerebellum (chose background region) and striatum were drawn on the SPECT/MR/CT coregistered data. The percentage in injected dose per mm^3 (% ID/mm^3) was calculated by; injected dose (MBq)/counts in the whole body (MBq)/volume of the ROI (mm^3) to determine the peak uptake time and the optimum imaging window. A method based on the striatal binding ratio was utilised to determine specific-to-nondisplaceable binding ratios previously described as indicative of the binding potential at the time of binding equilibrium^6,7. The binding ratios were calculated by determining the mean counts per pixel in the specific region (hDAT expressing xenograft for the hDAT: cerebellum and hDAT: striatum ratios) divided by the mean counts per pixel in the nonspecific region.

DAT = molecular target: T2, DAT (Mus musculus, UniProt Q61327); assay: SPECT/CT imaging of striatum (endogenous DAT) in NSG mice; assay type: in vivo; settings: NSG mice n=4
T2 construct: the striatum (region with high endogenous expression of DAT); from tissue; host or cells: striatum of living NSG mice (in vivo SPECT)
Method: as §2
Time activity profiles were generated evaluate the hDAT reporter system in vivo. […] The percentage in injected dose per mm^3 (% ID/mm^3) was calculated by; injected dose (MBq)/counts in the whole body (MBq)/volume of the ROI (mm^3) to determine the peak uptake time and the optimum imaging window. […] The binding ratios were calculated by determining the mean counts per pixel in the specific region (hDAT expressing xenograft for the hDAT: cerebellum and hDAT: striatum ratios) divided by the mean counts per pixel in the nonspecific region.

[4] = tested on: non-transduced SupT1 cells; assay: SPECT imaging of control animals injected with non-transduced SupT1 cells; assay type: in vivo, mouse; settings: intracranially injected non-transduced SupT1 cells
Method: as §2

hDAT [5] = molecular target: T1, hDAT; assay: PET/CT imaging of hDAT positive cells in mouse brain; assay type: in vivo; settings: i.v.
Method: Animals were administered with 1.5 mmol/kg of the thyroid blocking agent potassium perchlorate (Sigma Aldrich, USA) intraperitoneally one hour prior to imaging. Animals were imaged with a PET/CT small animal in vivo scanner (Mediso, Hungary). Imaging was performed under isoflurane (1.5-2%) and the body temperature was maintained at 37° C. using a heated animal bed (Minerve, France). Four weeks post tumour inoculation, animals were administered with 5 MBq of ^18F-FP-CIT i.v. and brain scans were acquired 30 min post injection. A high-resolution CT was acquired immediately following […] imaging. Images were reconstructed using HiSPECT software (InviCRO, USA) and image processing analysis was performed (VivoQuant Software; InviCRO, USA).

[6] = Binding of 123I-FP-CIT by hDAT and hDAT variant proteins from different constructs; settings: for binding of [123I]-FP-CIT by hDAT variant: compared to wild-type hDAT, FIG. 7
Method: as §1

[7] = after 4 h post i.v. injection (constant)

T2 sequence (Q61327 whole entry): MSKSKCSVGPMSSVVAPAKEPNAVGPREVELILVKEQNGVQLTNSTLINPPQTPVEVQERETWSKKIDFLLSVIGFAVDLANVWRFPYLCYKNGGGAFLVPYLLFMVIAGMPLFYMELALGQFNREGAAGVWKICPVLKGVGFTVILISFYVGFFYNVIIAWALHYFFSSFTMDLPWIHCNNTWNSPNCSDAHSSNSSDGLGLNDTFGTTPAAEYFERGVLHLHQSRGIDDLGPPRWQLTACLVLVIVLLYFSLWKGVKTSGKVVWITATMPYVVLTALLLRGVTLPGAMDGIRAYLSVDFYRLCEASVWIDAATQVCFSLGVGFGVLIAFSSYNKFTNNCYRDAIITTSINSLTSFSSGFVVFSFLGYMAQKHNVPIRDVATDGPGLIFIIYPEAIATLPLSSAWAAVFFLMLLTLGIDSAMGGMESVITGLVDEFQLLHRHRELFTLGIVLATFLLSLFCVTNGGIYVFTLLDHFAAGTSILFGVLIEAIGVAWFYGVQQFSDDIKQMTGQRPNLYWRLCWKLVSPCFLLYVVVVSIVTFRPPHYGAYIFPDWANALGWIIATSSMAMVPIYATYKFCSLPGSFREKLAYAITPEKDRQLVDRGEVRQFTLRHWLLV

## COC(=O)[C@H]1[C@@H](c2ccc(I)cc2)C[C@@H]2CC[C@H]1N2CCCF [[I]-FP-CIT]
hDAT [1]; SupT1/SFG.hDAT.I.CD34 cells co-incubated with cold compound, 50 μM
  % [123I]-FP-CIT binding in the presence of [I]-FP-CIT: 1.10±0.22%
hDAT [1]; SupT1/SFG.hDAT.I.CD34 cells, cold compound 50 μM, p<0.001
  fold reduction of [123I]-FP-CIT binding in the presence of [I]-FP-CIT: 32 fold
hDAT [1]; hDAT positive T-cells, co-incubation with cold compound 50 μM
  inhibition of [123I]-FP-CIT binding by cold compound (in words): complete binding inhibition; also recorded: completely abolished

## COC(=O)[C@H]1[C@@H](c2ccc(I)cc2)C[C@@H]2CC[C@H]1N2CCCF [[^123I]-FP-CIT, [I-^123] N-ω-fluoropropyl-2β-carbomethoxy-3β-(4-iodophenyl) nortropane]
hDAT [1]; SupT1/SFG.hDAT.I.CD34 cells, 7.4 kBq, 37° C., 30 min
  percentage [123I]-FP-CIT binding: 35.10±5.24%
hDAT [1]; hDAT cells vs non-transduced SupT1 cells
  fold greater % [123I]-FP-CIT binding in SupT1/SFG.hDAT.I.CD34 compared to control cells: 25 fold and 27 fold
[2]
  percentage [123I]-FP-CIT binding: 1.41±0.40%
hDAT [3]; 2 h post i.v. injection (peak)
  specific to non-specific binding ratio hDAT: cerebellum: 5.73±1.75
hDAT [3]; SupT1/SFG.hDAT.I.CD34 xenografts, SPECT
  optimum imaging time post injection: 2 h
hDAT [3]; [7]
  specific to non-specific binding ratio hDAT: cerebellum: 4.09±0.38
hDAT [3]; co-registered SPECT-MR-CT, 2 h post i.v. injection
  co-localisation of SPECT signal with MR contrast at xenograft site: good co-localisation; also recorded: good correlation
hDAT [3]; dynamic SPECT at 15 min, 2 h, 4 h, 6 h
  time post radiotracer injection at which hDAT-positive xenografts were visualised by SPECT: as early as 15 min and up to 6 hr
DAT; 2 h post i.v. injection (peak)
  specific to non-specific binding ratio striatum: cerebellum: 6.56±2.40
DAT; [7]
  specific to non-specific binding ratio striatum: cerebellum: 4.08±0.60
[4]
  SPECT signal in control animals: non-detectable

## COC(=O)[C@H]1[C@@H](c2ccc(I)cc2)C[C@@H]2CC[C@H]1N2CCC[18F] [^18F-FP-CIT, [^18F] fluoropropyl-carbomethoxy-iodophenyl-nortropane]
hDAT [5]
  detection of hDAT positive cells by PET/CT: could also be detected

## RQR8-hDAT: hDAT tagged with RQR8
[6]
  binding of [123I]-FP-CIT by hDAT variant: increased levels

B1: dhDATopt: truncated hDAT, probably lacking the 49 N-terminal amino acids compared to wild-type hDAT (protein)
chain: MSKSKCSVGLMSSVVAPAKEPNAVGPKEVELILVKEQNGVQLTSSTLTNPRQSPVEAQDRETWGKKIDFLLSVIGFAVDLANVWRFPYLCYKNGGGAFLVPYLLFMVIAGMPLFYMELALGQFNREGAAGVWKICPILKGVGFTVILISLYVGFFYNVIIAWALHYLFSSFTTELPWIHCNNSWNSPNCSDAHPGDSSGDSSGLNDTFGTTPAAEYFERGVLHLHQSHGIDDLGPPRWQLTACLVLVIVLLYFSLWKGVKTSGKVVWITATMPYVVLTALLLRGVTLPGAIDGIRAYLSVDFYRLCEASVWIDAATQVCFSLGVGFGVLIAFSSYNKFTNNCYRDAIVTTSINSLTSFSSGFVVFSFLGYMAQKHSVPIGDVAKDGPGLIFIIYPEAIATLPLSSAWAVVFFIMLLTLGIDSAMGGMESVITGLIDEFQLLHRHRELFTLFIVLATFLLSLFCVTNGGIYVFTLLDHFAAGTSILFGVLIEAIGVAWFYGVGQFSDDIQQMTGQRPSLYWRLCWKLVSPCFLLFVVVVSIVTFRPPHYGAYIFPDWANALGWVIATSSMAMVPIYAAYKFCSLPGSFREKLAYAIAPEKDRE
modifications: dhDATopt_d protein sequence
notes: truncated hDAT, probably lacking the 49 N-terminal amino acids compared to wild-type hDAT
[6]
  binding of [123I]-FP-CIT by hDAT variant: able to bind

B2: hDAToptD313N: hDAT including a D313N mutation (protein, UniProt Q01959 1-620, looked up, variant D313N)
Sodium-dependent dopamine …: MSKSKCSVGLMSSVVAPAKEPNAVGPKEVELILVKEQNGVQLTSSTLTNPRQSPVEAQDRETWGKKIDFLLSVIGFAVDLANVWRFPYLCYKNGGGAFLVPYLLFMVIAGMPLFYMELALGQFNREGAAGVWKICPILKGVGFTVILISLYVGFFYNVIIAWALHYLFSSFTTELPWIHCNNSWNSPNCSDAHPGDSSGDSSGLNDTFGTTPAAEYFERGVLHLHQSHGIDDLGPPRWQLTACLVLVIVLLYFSLWKGVKTSGKVVWITATMPYVVLTALLLRGVTLPGAIDGIRAYLSVDFYRLCEASVWINAATQVCFSLGVGFGVLIAFSSYNKFTNNCYRDAIVTTSINSLTSFSSGFVVFSFLGYMAQKHSVPIGDVAKDGPGLIFIIYPEAIATLPLSSAWAVVFFIMLLTLGIDSAMGGMESVITGLIDEFQLLHRHRELFTLFIVLATFLLSLFCVTNGGIYVFTLLDHFAAGTSILFGVLIEAIGVAWFYGVGQFSDDIQQMTGQRPSLYWRLCWKLVSPCFLLFVVVVSIVTFRPPHYGAYIFPDWANALGWVIATSSMAMVPIYAAYKFCSLPGSFREKLAYAIAPEKDRELVDRGEVRQFTLRHWLKV
[6]
  binding of [123I]-FP-CIT by hDAT variant: increased levels

B3: hDAT: human dopamine transporter expressed from tricistronic construct RQR8.2A.aCD19.2A.hDAT_opt (protein)
chain: MSKSKCSVGLMSSVVAPAKEPNAVGPKEVELILVKEQNGVQLTSSTLTNPRQSPVEAQDRETWGKKIDFLLSVIGFAVDLANVWRFPYLCYKNGGGAFLVPYLLFMVIAGMPLFYMELALGQFNREGAAGVWKICPILKGVGFTVILISLYVGFFYNVIIAWALHYLFSSFTTELPWIHCNNSWNSPNCSDAHPGDSSGDSSGLNDTFGTTPAAEYFERGVLHLHQSHGIDDLGPPRWQLTACLVLVIVLLYFSLWKGVKTSGKVVWITATMPYVVLTALLLRGVTLPGAIDGIRAYLSVDFYRLCEASVWIDAATQVCFSLGVGFGVLIAFSSYNKFTNNCYRDAIVTTSINSLTSFSSGFVVFSFLGYMAQKHSVPIGDVAKDGPGLIFIIYPEAIATLPLSSAWAVVFFIMLLTLGIDSAMGGMESVITGLIDEFQLLHRHRELFTLFIVLATFLLSLFCVTNGGIYVFTLLDHFAAGTSILFGVLIEAIGVAWFYGVGQFSDDIQQMTGQRPSLYWRLCWKLVSPCFLLFVVVVSIVTFRPPHYGAYIFPDWANALGWVIATSSMAMVPIYAAYKFCSLPGSFREKLAYAIAPEKDRELVDRGEVRQFTLRHWLKV
modifications: hDAT protein sequence
[6]; hDAT expressed from CD19 CAR-hDAT tricistronic construct, FIG. 8C
  binding of [123I]-FP-CIT by hDAT co-expressed with CD19 CAR: able to bind
